From patent US6432961B1, “Method for preventing the onset of asthma” (UCB S.A., priority 1998, dated 2002)

Columns and labels:
[1] = tested on: onset of asthma in young children with atopic dermatitis; test: 18 month double blind, placebo-controlled study of cetirizine dihydrochloride for preventing the onset of asthma; assay type: in vivo, infants; conditions: for RR for developing asthma when cetirizine treated: versus placebo
Description: The aim of the study relative to the clinical effect of cetirizine dihydrochloride was to establish on the intention to treat (ITT population) whether an 18 month cetirizine dihydrochloride treatment can prevent the onset of asthma in young children with atopic dermatitis, when compared to placebo. Subgroups based on the baseline status of biological markers as well as specific asthmatic patients (i.e. wheezers only; asthma onset date at least 3 months after inclusion) were foreseen as well. It was considered that a 30% reduction of the incidence of asthma is clinically relevant. Secondary parameters of efficacy included the severity of asthma and atopic dermatitis.
All the infants had to have at least one parent or sibling with a history of atopic disease (atopic dermatitis, allergic rhinitis or asthma). Excluded were infants with asthma, or with a history of any episodes of wheezing or nocturnal cough as well as any condition likely to obscure the diagnosis of asthma (Guidelines for the diagnosis and management of asthma. National Asthma Education and Prevention Program. Expert Panel Report II. National Institute of Health publication 97-4051; International Report. International consensus report on diagnosis and treatment of asthma. National Heart, Lung and Blood Institute. National Institute of Health publication 92-3091).
The study was a prospective, randomized, double blind, parallel group, and placebo-controlled study with cetirizine dihydrochloride.
Study treatment lasted for 18 months. After the treatment period, patients entered a long-term follow-up period.
The primary end-point for efficacy was the onset of asthma, defined as 3 episodes of nocturnal cough with sleep disturbances or wheezing, separated by at least 7 days, in a clinical setting where asthma is likely and conditions other than allergy have been excluded.
Serum total and specific (grass pollen, cow's milk, egg, house dust mites and cat dander) IgE antibody levels were determined using the Pharmacia CAP® system (Pharmacia & Upjohn, Uppsala, Sweden). These analyses were made at baseline, and after 3, 12 and 18 months of treatment by a central laboratory (Institut Pasteur—Lille, France) according to instructions of the manufacturer and routine clinical laboratory performances.
(§1) Oral solutions of cetirizine dihydrochloride (10 mg/ml) and matching placebo, similar in appearance and taste were used. The recommended study dosage was 0.25 mg cetirizine/kg b.i.d. (b.i.d.=“bis in die”, 2 times a day).
Sample size was based on an expected cumulative incidence of asthma in 40% of children in the placebo group after 18 months of treatment. A decrease of 30% of the incidence was considered as clinically relevant.

[2] = tested on: infants with atopic dermatitis; test: Adverse events recorded during the 18 month study; assay type: in vivo
Description: At each of the nine visits, the atopy status, any concurrent illnesses, concomitant medications and procedures were recorded. Patients underwent a physical examination, including the measurement of vital signs.
Adverse events were recorded by the parents on diary cards and discussed with the investigator at each visit. Serious adverse events had to be reported immediately.
as §1

[3] = subgroup with elevated Eosinophil count at baseline

## O=C(O)COCCN1CCN(C(c2ccccc2)c2ccc(Cl)cc2)CC1 (centres unmarked) [Cetirizine]
[1]; ITT population, 18 months, 0.25 mg/kg b.i.d. oral
  Occurrence of Asthma by Treatment: (37.7) %
[1]; early treatment initiated between 1 and 2 years of age, atopic dermatitis, sensitized (specific IgE ≧0.35 kUA/l) to grass pollen or house dust mite
  number of children developing asthma: halved
[1]; infants with atopic dermatitis and evidence of sensitivity to grass pollen or house dust mite
  prevention of asthma: successfully prevents asthma
[1]; infants with raised baseline total IgE (≧30 kU/l) or specific IgE antibodies (≧0.35 kUA/l)
  risk of developing asthma compared with placebo: reduced risk of developing asthma
[1]; [3]
  Occurrence of Asthma by Treatment: (42.7) %
  RR for developing asthma when cetirizine treated: 0.9
[1]; subgroup with elevated IgE Cat dander (E1) at baseline (≧0.35 kUA/l)
  Occurrence of Asthma by Treatment: (40.6) %
[1]; subgroup with elevated IgE Egg (F1) at baseline (≧0.35 kUA/l)
  Occurrence of Asthma by Treatment: (31.2) %
[1]; subgroup with elevated IgE Grass pollen (GX1) at baseline (≧0.35 kUA/l)
  Occurrence of Asthma by Treatment: (27.8) %
[1]; subgroup with elevated IgE HDM (D1) at baseline (≧0.35 kUA/l)
  Occurrence of Asthma by Treatment: (28.6) %
[1]; subgroup with elevated IgE HDM + Grass pollen at baseline (≧0.35 kUA/l)
  Occurrence of Asthma by Treatment: (34.2) %
[1]; subgroup with elevated IgE Milk (F2) at baseline (≧0.35 kUA/l)
  Occurrence of Asthma by Treatment: (30.7) %
[1]; subgroup with elevated Total IgE (PRIST) at baseline (≧30 kU/l)
  Occurrence of Asthma by Treatment: (38.1) %
[1]; subgroup with elevated IgE Cat dander (E1) at baseline
  RR for developing asthma when cetirizine treated: 0.9
[1]; subgroup with elevated IgE Egg (F1) at baseline
  RR for developing asthma when cetirizine treated: 0.8
[1]; subgroup with elevated IgE Grass pollen (GX1) at baseline
  RR for developing asthma when cetirizine treated: 0.5
[1]; subgroup with elevated IgE HDM (D1) at baseline
  RR for developing asthma when cetirizine treated: 0.6
[1]; subgroup with elevated IgE HDM + Grass pollen at baseline
  RR for developing asthma when cetirizine treated: 0.6
[1]; subgroup with elevated IgE Milk (F2) at baseline
  RR for developing asthma when cetirizine treated: 0.7
[1]; subgroup with elevated Total IgE (PRIST) at baseline
  RR for developing asthma when cetirizine treated: 0.9
[2]; 18 month treatment, large trial in infants
  safety in infants: safe product
[2]; cetirizine group versus 16.1% placebo, p<0.001
  urticaria (adverse event frequency): 5.8%
[2]; cetirizine versus placebo, except for urticaria
  adverse event (AE) profiles between groups: no significant differences
